Source: patent publication US12048686B2, “Compositions and methods for activating NRF2-dependent gene expression” (The University of Chicago, priority 2018, dated 2024)

Tests used:
PGK1 = molecular target: T1, PGK1 (Homo sapiens, UniProt P00558); experiment: Recombinant PGK1 assay (GAPDH/PGK1 coupled assay, NADH absorbance); assay type: biochemical; details: absorbance 340 nm
T1 sequence (P00558 1-417): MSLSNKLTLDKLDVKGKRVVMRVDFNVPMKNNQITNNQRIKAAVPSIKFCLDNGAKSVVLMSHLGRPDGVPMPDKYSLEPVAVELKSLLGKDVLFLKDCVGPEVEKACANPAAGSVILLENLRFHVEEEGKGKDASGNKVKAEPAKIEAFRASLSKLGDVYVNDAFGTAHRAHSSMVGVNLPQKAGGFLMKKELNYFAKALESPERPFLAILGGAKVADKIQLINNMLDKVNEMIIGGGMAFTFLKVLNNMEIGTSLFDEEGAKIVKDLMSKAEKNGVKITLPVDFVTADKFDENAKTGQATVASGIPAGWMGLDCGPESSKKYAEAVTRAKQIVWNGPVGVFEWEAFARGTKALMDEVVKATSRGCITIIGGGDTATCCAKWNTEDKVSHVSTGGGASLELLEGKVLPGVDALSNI
Source text: FIG. 6A-D. CBR-470-1 inhibits PGK1 in vitro and in situ. (a) Schematic of the GAPDH/PGK1 coupled assay. Pre-equilibration of the GAPDH reaction (top left) results in an NAD^+/NADH equilibrium, which upon addition of PGK1 and ADP pulls the reaction to the right producing more NADH. Monitoring NADH absorbance after addition of PGK1 (bottom right) can be used to monitor PGK1 activity in the forward direction (right). […] (c, d) Relative level of central metabolites in IMR32 cells treated with viral knockdown of PGK1 for 72 hours (c) (n=4) and with CBR-470-1 relative DMSO alone for the indicative times (d) (n=3). Each metabolite is normalized to the control condition at each time point. Data shown represent mean±SEM of biologically independent samples.
Recombinant PGK1 assay. PGK1 enzymatic activity in the forward direction was measured with a coupled enzymatic assay^34. Three PGK1 conditions were prepared by dissolving recombinant PGK1 in potassium phosphate buffer (10 mM KH2PO4, 10 mM MgSO4, pH 7.0), and transferring the aliquots of PGK1 solution to the microtubes being treated with same amount of DMSO and indicated concentrations of CBR-470-1. Final concentration of PGK1 is 20 ng/mL and DMSO is 1% for each sample. […] The change in absorbance at 340 nm at room temperature was measured every 20 seconds for 45 minutes, by Tecan Infinite M200 plate reader. […]

[1] = tested on: Primary murine alveolar macrophages; experiment: PM-induced mRNA expression in primary murine alveolar macrophages; assay type: cell-based; details: pretreated 4 hours, 4 hours later
Protocol: FIG. 19A-C. Primary murine alveolar macrophages were treated with PM or vehicle control (media) in the absence or presence of CBR-470-1 (pretreated 4 hours prior to PM) and measured IL-6, TNFa and NQO1 mRNA 4 hours later.

HCT116 = experiment: Viability of HCT116 with genetic manipulation of GLO1 and PGK1; assay type: cell-based
KEAP1 = molecular target: T2, KEAP1 (Homo sapiens, UniProt Q14145); experiment: MGx dose-response HMW-KEAP1 formation in FLAG-KEAP1 lysates or purified KEAP1; assay type: biochemical; details: FLAG-KEAP1 containing lysates or purified KEAP1, freshly distilled MGx
T2 construct: full-length, human KEAP1 (28023, Addgene) was transiently expressed from a pcDNA/FRT/TO plasmid with a C-terminal 3×FLAG tag; host or cells: HEK293T
T2 sequence (Q14145 whole entry): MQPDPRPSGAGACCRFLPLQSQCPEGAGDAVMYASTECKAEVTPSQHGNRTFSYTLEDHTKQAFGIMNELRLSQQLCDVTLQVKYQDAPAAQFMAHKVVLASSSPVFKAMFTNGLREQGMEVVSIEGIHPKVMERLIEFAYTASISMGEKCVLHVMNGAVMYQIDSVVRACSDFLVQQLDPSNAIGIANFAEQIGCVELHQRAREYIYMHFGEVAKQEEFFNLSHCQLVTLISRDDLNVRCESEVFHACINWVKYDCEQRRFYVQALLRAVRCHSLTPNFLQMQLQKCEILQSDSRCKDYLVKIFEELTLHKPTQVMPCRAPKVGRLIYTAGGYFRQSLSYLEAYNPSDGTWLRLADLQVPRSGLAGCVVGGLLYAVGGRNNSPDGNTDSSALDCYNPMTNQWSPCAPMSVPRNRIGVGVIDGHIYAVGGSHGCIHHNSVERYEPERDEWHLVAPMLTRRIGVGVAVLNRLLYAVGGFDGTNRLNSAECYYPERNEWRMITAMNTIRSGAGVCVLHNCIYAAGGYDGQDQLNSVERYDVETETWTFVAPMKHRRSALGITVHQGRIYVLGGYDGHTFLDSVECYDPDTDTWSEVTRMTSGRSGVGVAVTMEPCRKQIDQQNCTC
Protocol: Metabolite Treatments and HMW-KEAP1 screening. For in vitro screening of glycolytic metabolites, HEK293T cells expressing FLAG-KEAP1 were lysed by snap-freeze-thaw cycles (3×) in PBS, pH 7.4, containing EDTA-free complete protease inhibitor (Roche). Lysates were cleared by centrifugation and the supernatants normalized for concentration by Bradford reagent (2 mg/mL). Concentrated stocks of each metabolite were made in PBS, which were added to the lysate samples for the final indicated concentrations and incubated at 37° C. for 2.5 hours with shaking. Following incubation, samples were denatured with 6 M urea and processed for SDS-PAGE and western blotting. Methylglyoxal (40% v/v with H2O), glyceraldehyde 3-phosphate (GAP), dihydroxyacetone phosphate (DHAP), and 2,3-bisphosphoglycerate (2,3-BPG) were all obtained from Sigma Aldrich and used as PBS stocks. […] Each mixture was incubated at 37° C. for 8 hours with rotating, HMW-KEAP1 formation was analyzed by SDS-PAGE and western blot.
For studies with recombinant KEAP1, FLAG-KEAP1 was expressed in HEK293T cells from transient transfection of the Flag-Keap1 plasmid (Addgene plasmid #28023). […] 12 μL of this reaction was then separated by SDS-PAGE and the presence of HMW-KEAP1 evaluated by anti-FLAG Western blotting as described or by silver staining using the Pierce Silver Stain Kit (ThermoFisher Scientific).

SMILES	PGK1-dependent activity and accumulation of NADH (PGK1)	IL-6 mRNA [1]	NQO1 mRNA [1]	TNFa mRNA [1]	viability sensitivity of PGK1 knockdown cells (HCT116; HCT116, PGK1 knockdown)	viability sensitivity of cells acclimated to low GLO1 levels (HCT116; HCT116, low GLO1)	formation of HMW-KEAP1 (KEAP1)
CC(C)CN[C@H]1CS(=O)(=O)C[C@@H]1S(=O)(=O)c1ccc(Cl)cc1 [CBR-470-1]	significantly inhibits PGK1-dependent activity and accumulation of NADH	attenuated PM-induced l6 and TNFa mRNA expression	induced NQO1 (Nrf2 target gene)	attenuated PM-induced l6 and TNFa mRNA expression	more sensitive to CBR-470-1 metabolic inhibition	resistance to CBR-470-1 metabolic inhibition	
CC(=O)C=O [MGx, methylglyoxal, reference compound]							dose-dependent formation of HMW-KEAP1 at mid-μM concentrations
